Reference: US9790235B2, “MK2 inhibitors and uses thereof” (Celgene CAR LLC, priority 2014, dated 2017)
Read-outs that look alike come from different tables or passages of the source.

Key:
MK2 [1] = target: T1, MK2 (Homo sapiens (Human), UniProt P49137); test: MK2 cellular assay, total and phospho-Hsp27 (Serine 78) by MSD ELISA (Thp1); assay type: cell-based
Outline: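 PMA-differentiated (10 ng/mL, 72 h) Thp-1 cells were pretreated with compound (top 3000 nM) for 1 h at 37 °C, then stimulated with 50 ng/mL LPS for 45 min. Lysate phospho-Hsp27 (Ser78) and total Hsp27 were read by MSD electrochemiluminescence ELISA, and the value is expressed as percent phospho/total signal per well.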

MK2 [2] = target: T1, MK2; details: percentage of modified protein after 60 minutes at room temperature, 10-fold excess of compound; MALDI (I-1 to I-50), magnetic bead MALDI (I-51 to I-129)
[3] = target: p38α activated, mitogen-activated protein kinase-activated protein kinase 2 (MAPKAP-K2 or MK2) enzyme (Homo sapiens (Human), UniProt P49137); test: MK2 Omnia continuous-read kinase assay for compound potency; assay type: biochemical; details: [MK-2]=0.4 nM, [ATP]=10 μM, [ST3-Sox]=10 μM; read-out: MK2 IC50
Chain of p38α activated, mitogen-activated protein kinase-activated protein kinase 2 (MAPKAP-K2 or MK2) enzyme (P49137 whole entry): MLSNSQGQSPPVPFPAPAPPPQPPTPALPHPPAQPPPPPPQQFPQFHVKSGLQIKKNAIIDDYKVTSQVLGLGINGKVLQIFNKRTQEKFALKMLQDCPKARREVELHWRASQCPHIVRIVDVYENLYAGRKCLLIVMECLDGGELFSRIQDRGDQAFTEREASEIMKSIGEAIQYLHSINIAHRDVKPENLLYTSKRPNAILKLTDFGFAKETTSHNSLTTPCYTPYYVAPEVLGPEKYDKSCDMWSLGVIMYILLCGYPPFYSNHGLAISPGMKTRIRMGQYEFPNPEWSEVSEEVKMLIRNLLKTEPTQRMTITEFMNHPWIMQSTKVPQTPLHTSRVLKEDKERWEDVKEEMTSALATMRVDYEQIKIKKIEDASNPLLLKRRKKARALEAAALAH
Outline: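 Activated MK2 (0.4 nM) was run with S/T3-Sox peptide and ATP, each at 10 μM (ATP at apparent KM), and Sox fluorescence was followed every 71 s for 2 h at room temperature. IC50 came from linear initial rates after no-enzyme subtraction, and apparent kinact/KI from kobs of single-exponential fits.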

[4] = Thp-1 cells, 1 hour compound, 50 ng/mL LPS 45 minutes, p-HSP27 (Ser78)/total HSP27, read-out: pHSP27 signaling EC50
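Throughout, for Mass Modification: covalent binding read from centroid mass shift of compound-treated versus untreated intact MK2, shift divided by compound molecular weight, giving fraction of total protein bound.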

T1 sequence (P49137 whole entry): as above

EC50 (MK2 [1]) [µM]	Compound	Mass Modification (MK2 [2])	IC50 [3] [µM]	EC50 (MK2 [1]; [4]) [µM]
> 1	COCCOc1cc(F)nc(Nc2ccc3c(ccc4sc5c(c43)NC[C@@H](C)NC5=O)n2)n1 [I-45, (R)-3-((4-fluoro-6-(2-methoxyethoxy)pyrimidin-2-yl)amino)-10-methyl-9,10,11,12-tetrahydro-8H-[1,4]diazepino[5′,6′:4,5]thieno[3,2-f]quinolin-8-one]	G (mass modification ≦30%)	< 0.1	–
–	C[C@@H]1CNc2c(sc3ccc4nc(Nc5cc(F)ncc5C#N)ccc4c23)C(=O)N1 [I-27, (R)-6-fluoro-4-((10-methyl-8-oxo-9,10,11,12-tetrahydro-8H-[1,4]diazepino[5′,6′:4,5]thieno[3,2-f]quinolin-3-yl)amino)nicotinonitrile]	G (mass modification ≦30%)	< 0.1	< 0.1
–	CNC[C@@H]1CNc2c(sc3ccc4nc(Nc5cc(F)ncn5)ccc4c23)C(=O)N1 [I-35]	F (mass modification of 31-69%)	0.101 to 0.5	0.501 to 0.999
–	Cc1nc(Cl)cc(Oc2ccc3c(ccc4sc5c(c43)NC[C@@H](C)NC5=O)n2)n1 [I-58, (R)-3-((6-chloro-2-methylpyrimidin-4-yl)oxy)-10-methyl-9,10,11,12-tetrahydro-8H-[1,4]diazepino[5′,6′:4,5]thieno[3,2-f]quinolin-8-one]	E (mass modification of ≧70%)	< 0.1	< 0.1
–	C[C@@H]1CNc2c(sc3ccc4nc(Nc5ccnc(S(C)(=O)=O)n5)ccc4c23)C(=O)N1 [I-14, (R)-10-methyl-3-((2-(methylsulfonyl)pyrimidin-4-yl)amino)-9,10,11,12-tetrahydro-8H-[1,4]diazepino[5′,6′:4,5]thieno[3,2-f]quinolin-8-one]	G (mass modification ≦30%)	< 0.1	> 1
> 1	C[C@@H]1CNc2c(sc3ccc4nc(N(C)c5cc(F)ncn5)ccc4c23)C(=O)N1 [I-38, (R)-3-((6-fluoropyrimidin-4-yl)(methyl)amino)-10-methyl-9,10,11,12-tetrahydro-8H-[1,4]diazepino[5′,6′:4,5]thieno[3,2-f]quinolin-8-one]	G (mass modification ≦30%)	< 0.1	–
–	C[C@@H]1CNc2c(sc3ccc4nc(Nc5cc(Cl)nc(OCCN6CCN(C)CC6)n5)ccc4c23)C(=O)N1 [I-66, (R)-3-((6-chloro-2-(2-(4-methylpiperazin-1-yl)ethoxy)pyrimidin-4-yl)amino)-10-methyl-9,10,11,12-tetrahydro-8H-[1,4]diazepino[5′,6′:4,5]thieno[3,2-f]quinolin-8-one]	F (mass modification of 31-69%)	< 0.1	0.101 to 0.5
–	C[C@@H]1CNc2c(sc3ccc4nc(Nc5cc(F)ncc5C(N)=O)ccc4c23)C(=O)N1 [I-29, (R)-6-fluoro-4-((10-methyl-8-oxo-9,10,11,12-tetrahydro-8H-[1,4]diazepino[5′,6′:4,5]thieno[3,2-f]quinolin-3-yl)amino)nicotinamide]	G (mass modification ≦30%)	< 0.1	> 1
–	CCN1CCN(Cc2cnc(Cl)nc2Oc2ccc3c(ccc4sc5c(c43)NC[C@@H](C)NC5=O)n2)CC1 [I-94, (R)-3-((2-chloro-5-((4-ethylpiperazin-1-yl)methyl)pyrimidin-4-yl)oxy)-10-methyl-9,10,11,12-tetrahydro-8H-[1,4]diazepino[5′,6′:4,5]thieno[3,2-f]quinolin-8-one]	E (mass modification of ≧70%)	0.101 to 0.5	> 1
